According to patent US20250098673A1, “COMPOSITIONS, MEANS AND METHODS FOR A NOVEL INSECT REPELLENT” (priority 2019, published 2025):

Columns and labels:
Culex quinquefasciatus = assay: Arm-in-cage mosquito repellency test on human subjects (Protection Time); assay type: in vivo; conditions: mean of 5 subjects; Sano data obtained at a different time (historical comparison)
Protocol: In an embodiment of this invention, the insect repellent effect of a 20% DHA solution was studied. These studies were carried out at Poseidon Sciences Insect Control Laboratory (Miagao, Iloilo, Philippines), a breeding facility for C. quinquefasciatus, for research and development. The insect repellency of a DHA solution, comprising 20% DHA dissolved in a 30% ethanol aqueous solution, was compared to that of a Placebo solution, comprising 30% ethanol in water, as a negative control solution. As a positive control, the repellency of DHA was also compared to that of a commercial Sano insect repellent, a plant based repellent, using a composition of 20% of citrepel 75 dissolved in water. The placebo and the 20% DHA solution were kept in a refrigerator until the day of use. The samples were removed from the refrigerator and kept at room temperature for 3 hours before the tests were undertaken.
The above-mentioned solutions were then tested on a total of 10 subjects (age 19 to 44 comprising a total of 6 women and 4 men), all in good health. Each subject had signed an Informed Consent Form. This study had been approved by Poseidon Sciences IRB (Institutional Review Board). […]
Following application of the tested solution to the arm of the subject, testing was carried out as follows: a research scientist recorded the time of insertion of the arm into the cage and observed mosquito landing. […]

[1] = tested on: Whitefly (Bemisia tabaci); assay: Study 1: pest control experiment in cauliflower compared to Mospilan; assay type: in vivo
Protocol: Whitefly (Bemisia tabaci), is a major pest, in many crops around the world. These pests are carriers of several virus diseases and are damaging the leaves and fruit with scratches and punch-and-suck activity. Furthermore, in cauliflower, excreting honeydew on the leaves and fruit, causes to mold development, which can disqualify the products for the market.
DHA was sprayed in two doses on cauliflower, for checking the effect on Whiteflies. These treatments were tested vs. a standard treatment (Mospilan) and a control treatment (not spraying): • DHA, 2.5% (aqueous solution) • DHA, 5% (aqueous solution) • Mospilan (Acetamiprid 200 g/L), 500 ml per hectare • Control (water spraying)
The experiment was implemented with 4 replicates for each treatment (randomly spread). Each replicate was 12 m long and 2 m width. Spraying volume was 40 L/Dunam. The solution for spraying was in a volume of 4 L.
Counting and statistics: Counting Whiteflies and Thrips was made on 20 leaves, selected randomly in each replicate. Variance analysis was made by Tukey-Kramer (α=0.05). Counting was performed every 7 days.

[2] = cited from earlier work

SMILES: O=C(CO)CO [DHA, Dihydroxyacetone]
- Protection Time, Mean (Culex quinquefasciatus): 45 min
- reduction of mature Whitefly compared to control group ([1]; adults, significant): ~65%
- reduction of young stage Whitefly (trend) ([1]; young stage, trend): ~40%
- carcinogenicity ([2]; SCCS report 2010): non-carcinogenic
- irritancy ([2]; SCCS report 2010): non-irritant
- skin sensitization or photo sensitization ([2]; SCCS report 2010): did not cause skin sensitization or photo sensitization effects
- systemic absorption ([2]; application to skin): not systemically absorbed
- safety of DHA sprays applied to skin ([2]; concentrations of up to 10%, SCCS report 2010): safe to use
